system: HBV; test: HBV replication in HBV-infected fresh primary human hepatocytes (PHH): secreted HBsAg, HBeAg, HBV DNA; assay type: cell-based, HBV (genotype D); conditions: FXR agonist 1 μM combined with Riboxxol 5 μg/mL, FIG. 5
Experimental: Primary human hepatocytes (PHH) were freshly prepared from human liver resection obtained from the Centre Léon Bérard (Lyon) with French ministerial authorizations (AC 2013-1871, DC 2013-1870, AFNOR NF 96 900 sept 2011) as previously described (Lecluyse, E. L. & Alexandre, E. Methods Mol. Biol. Clifton NJ 640, 57-82 (2010)).
HBV stocks (genotype D, Genbank ID U95551) were prepared using the HepAD38 cell line according to previously described protocols (Ladner, S. K. et al. Antimicrob. Agents Chemother. 41, 1715-1720 (1997)). Supernatants containing HBV particles were clarified (0.45 μm filter) and concentrated with 8% PEG 8000 (Sigma-Aldrich). HBV DNA was quantified using the AmpliPrep/COBAS® TaqMan® HBV Test (Roche).
EYP-001 was provided by Enyo Pharma. A stock at 30 mM was constituted in DMSO, and working concentrations were obtained by dilution into the culture medium extemporaneously. Riboxxol was purchased from Riboxx (Germany). It is a synthetic double-stranded RNA (dsRNA), has a length of 50 bp, and is composed of cytosines, inosines and guanosines. It is a pure agonist of TLR3, with no leakiness toward RIG-1 or MDA5 (Lucifora J et al. Sci Rep. 2018 Mar. 29; 8(1):5390). A stock solution was constituted at 1 mg/mL in RNAse-free water. Poly(I:C) High and Low molecular weight were purchased from InvivoGen (USA). They are both double stranded RNA composed of inosine and cytosine (Low: 0.2 to 1 kb, High: 1.5 to 8 kb) and are TLR3 agonists. A stock solution at 1 mg/mL was constituted in RNAse-free water. Tropifexor, Cilofexor and Nidufexor were purchased from TargetMol (USA), GW4064 from Selleckchem (USA), Fexaramine and OCA from Euromedex (France). Those 6 FXR agonists were used as described below. All the stock solutions were at 10 mM (Cilofexor, Tropifexor, Nidufexor, GW4064) or 50 mM (Fexaramine, OCA) in DMSO.
HBs and HBe antigens secreted in cells supernatant were quantified, after required dilutions, with Autobio kits (AutoBio, China) according to manufacturer's protocol.
To determine the combined impact of FXR agonists and TLR3 agonists on HBV infection, in vitro infections were performed in primary human hepatocytes (PHH). PHH are naturally susceptible to infection with HBV virions produced in vitro, leading to very high levels of replication of the virus. Freshly prepared and seeded PHH were infected with HBV at a multiplicity of infection of 500 vge/cell. From day 4 to 12 post-infection, cells were treated with the FXR agonist EYP001 at 30 μM, or with a TLR3 agonist (Riboxxol) at 5 μg/mL, or with the combination of the FXR agonist EYP001 at 30 μM with a TLR3 agonist (Riboxxol) at 5 μg/mL, or with the vehicle. Supernatants were harvested at day 12 for secreted HBV DNA and secreted antigens (HBsAg and HBeAg) quantification. Results are expressed as the mean+SD of two independent experiments, each performed with at least three biological replicates. […]
A third experiment was conducted the same way, in the same model of HBV infected PHH. In this experiment, 6 different FXR agonists (Tropifexor at 1 μM, Cilofexor at 10 μM, Nidufexor at 10 μM, GW4064 at 10 μM, Fexaramine at 10 μM and OCA at 10 μM) were combined with the TLR3 agonist Riboxxol at 5 μg/mL.

SMILES | HBeAg level, effect of the combination versus the TLR3 agonist alone | HBsAg level, effect of the combination versus the TLR3 agonist alone
O=C(O)c1cc(F)c2nc(N3[C@@H]4CC[C@H]3C[C@@H](OCc3c(-c5ccccc5OC(F)(F)F)noc3C3CC3)C4)sc2c1 [Tropifexor, 2-(3-((5-cyclopropyl-3-(2-(trifluoromethoxy)phenyl)isoxazol-4-yl)methoxy)-8-azabicyclo[3.2.1]octan-8-yl)-4-fluorobenzo[d]thiazole-6-carboxylic acid] | improve the antiviral effects | improve the antiviral effects

same assay, conditions: FXR agonist 10 μM combined with Riboxxol 5 μg/mL, FIG. 5

SMILES | HBeAg level, effect of the combination versus the TLR3 agonist alone | HBsAg level, effect of the combination versus the TLR3 agonist alone
CC[C@H]1[C@@H](O)[C@@H]2[C@H](CC[C@]3(C)[C@@H]([C@H](C)CCC(=O)O)CC[C@@H]23)[C@@]2(C)CC[C@@H](O)C[C@@H]12 [OCA, Cholan-24-oic acid, 6-ethyl-3,7-dihydroxy-, (3α,5β,6α,7α)-] | improve the antiviral effects | improve the antiviral effects
CC(C)c1onc(-c2c(Cl)cccc2Cl)c1COc1ccc(/C=C/c2cccc(C(=O)O)c2)c(Cl)c1 [GW4064, 3-[2-[2-Chloro-4-[[3-(2,6-dichlorophenyl)-5-(1-methylethyl)-4-isoxazolyl]methoxy]phenyl]ethenyl]benzoic acid] | improve the antiviral effects | improve the antiviral effects
Cn1nc(C(=O)N(Cc2ccccc2)Cc2ccc(C(=O)O)cc2)c2c1-c1cc(Cl)ccc1OC2 [Nidufexor, 4-[(N-benzyl-8-chloro-1-methyl-1,4-dihydro[1]benzopyrano[4,3-c]pyrazole-3-carboxamido)methyl]benzoic acid] | improve the antiviral effects | improve the antiviral effects
O=C(O)c1ccnc(N2CC(O)(c3ccc(OCc4c(-c5c(Cl)cccc5Cl)noc4C4CC4)cc3Cl)C2)c1 [Cilofexor, 2-[3-[2-Chloro-4-[[5-cyclopropyl-3-(2,6-dichlorophenyl)-4-isoxazolyl]methoxy]phenyl]-3-hydroxy-1-azetidinyl]-4-pyridinecarboxylic acid] | improve the antiviral effects | improve the antiviral effects
COC(=O)/C=C/c1cccc(N(Cc2ccc(-c3ccc(N(C)C)cc3)cc2)C(=O)C2CCCCC2)c1 [Fexaramine] | improve the antiviral effects | improve the antiviral effects
